Earlier results on two molecules are cited in patent US20160143876A1, “MAINTENANCE THERAPY REGIME/REGIMEN FOR THE TREATMENT OF ACNE” (GALDERMA RESEARCH & DEVELOPMENT, priority 2008, published 2016).

One data set concerns acne. The conditions noted are these: in vivo.
For data set [1] the following is noted: applied as monotherapy.

Each structure is given as a SMILES string.

For the molecule `CC1=C(/C=C/C(C)=C/C=C/C(C)=C\C(=O)O)C(C)(C)CCC1` [isotretinoin], the “Patients who relapse after treatment” value in the data set on acne is listed as “up to 21%”.
Consider `COc1ccc(-c2ccc3cc(C(=O)O)ccc3c2)cc1C12CC3CC(CC(C3)C1)C2` [Adapalene, 6-[3-(1-adamantyl)-4-methoxyphenyl]-2-naphtoic acid], for which the “Tolerability profile compared to other topical retinoids” value in data set [1] is reported as “more favorable tolerability profile”.
